The results in this text go back to patent US20040248762A1, “Malodor counteractant compositions” (priority 2003, published 2004).

Several values for one entry are separate records, joined by “and”; a condition that tells them apart may be missing. Equal values may be shown once.

A short description of assay [1]: MOC of sweat malodor on fabric swatches. Also noted: species or system human. Particulars: summary of Table 6. On the procedure:
The following fabric treatment solutions were prepared:
1. A solution of ethanol and Cremophor (a hydrogenated ethoxylated castor oil marketed by BASF Corp., Mount Olive, N.J.) containing 10% (wt) of dihexyl fumerate (DHF).
2. A solution of ethanol and Cremophor containing 10% (wt) of OMC.
3. A solution of ethanol and Cremophor containing 5% (wt) of DHF+5% (wt) OMC.
Five (5) fabric swatches were prepared, and labeled A-E. Swatch A was designated as the control swatch with no malodor. 100 μl of sweat malodor was placed in the middle of swatches B-E. Swatch B was designated as the control swatch for the malodor. The swatches were allowed to equilibrate with the malodor for 20 minutes. Onto swatches C-E, the following solutions were sprayed:
The malodor intensity on the cotton swatches was evaluated as follows:
The malodor intensity on swatch B (Malodor Control) was identified as a 5 (overpoweringly strong) on the scale of 1-5 set forth below at every time point, and the rest of swatches were evaluated based on that standard.

A short description of assay [2]: Synthetic axilla malodor on cotton pads, panel rating of malodor strength. Also noted: species or system human. Particulars: scale 5 overpowering to 1 not detectable; for 5% OMC + 5% Compound B (axilla malodor panel score): mixture 5% OMC + 5% Compound B. Here is the method:
100 μl of synthetic axilla malodor was placed onto cotton pads. 0.4 g of an ethanolic solution containing 10% (wt) of a test compound identified in Table 1 was placed on each axilla malodor treated cotton pad. Each pad was allowed to dry 15 for minutes, and then evaluated using a 10-member panel after 3 hours. The test cotton pads were randomized, and each panelist was asked to check a box that represented the strength of the axilla malodor using the following scale:
In this example, the MOC effect of various mixtures of a Class A MOC compound and a Class B MOC compound (i.e., dihexyl fumerate as disclosed in Kulka, U.S. Pat. No. 3,074,892) were evaluated using the same test and malodor evaluation procedures as set forth in Example 1. Each test solution contained 5% (wt) DHF and 5% (wt) of the Class A compound identified in Table 3. The MOC effect was evaluated as in Example 1.
Various mixtures of OMC (a Class A Compound) and a Class B compound (i.e., various cyclohexyl esters as disclosed in Schleppnik '221) as identified in Table 4 below were made according to the procedure set forth in Example 1. The MOC of each mixture was evaluated using the procedure set forth in Example 1.

In the case of `CCCCCCOC(=O)/C=C/C(=O)OCCCCCC` [Dihexyl Fumerate, reference compound], the “MOC effect on sweat malodor on fabric (in words)” value in assay [1] is reported as “had a MOC effect”. Further, the “10% test (Compound B Alone) (axilla malodor panel score)” value in assay [2] (10% Compound B alone, procedure of Example 1) is 2.6. For the same compound, the “5% OMC + 5% Compound B (axilla malodor panel score)” value in assay [2] (procedure of Example 1) is recorded as 2.3.
`CCCCC(CC)COC(=O)/C=C/c1ccc(OC)cc1` (stereo not drawn) [OMC, Octyl methoxy cinnamate]: in assay [1], the “MOC effect on sweat malodor on fabric (in words)” value was “had a MOC effect”. Besides, the “10% OMC (Alone) (axilla malodor panel score)” value in assay [2] (10% OMC alone, run beside the Compound B of that table line) was 3.1 and 2.6 and 3.2. Besides, in assay [2] (procedure of Example 1), the “5% OMC + 5% Compound B (axilla malodor panel score)” value is listed as “acts at least additively”.
